Consider 4 compounds from patent publication US8211483B2, “Composition comprising starch or dietary fiber from gramineae plant for prevention and treatment of ischemic diseases and degenerative brain disease” (Hypoxi Co., Ltd., priority 2007, dated 2012).

One data set has as its system SH-SY5Y cells. The experiment in a line: MTT assay, beta-amyloid-induced cytotoxicity in SH-SY5Y cells. In kind it is cell-based, human. Particulars: 15 microM beta-amyloid (alone 60.4%), p<0.05, FIG. 3e; for viability at 250 µg/mL: Homo sapiens, 250 microgram/ml, read-out: cell viability. The method, then:
To identify the neuroprotective effect of inventive crude extract, starch and total dietary fiber on the cytotoxicity induced by beta-amyloid, which is regarded as one of the main causes of Alzheimer's disease, the following MTT assay was performed by the procedure disclosed in the literature (Hoffman R. M., Cell Biology (Celis J E (Ed.), Vol. 1, pp 369-370, Academic Press, New York, 1994) with minor modification.
SH-SY5Y cells (human neuroblastoma cell line, ATCC CRL-2266, 4×10^4 cells/300 microliter/well) were seeded onto 48 well plates and incubated in Dulbecco's modified Eagle Medium/F12 90% medium (Invitrogen, USA) supplemented with penicillin G sodium (100 Units/L, Invitrogen, USA), streptomycin sulfate (100 mg/L, Invitrogen, USA) and 10% (w/v) fetal bovine serum (Invitrogen, USA); incubated at 37° C. in 5% CO2-95% air incubator for 48 hours. After changing the media, the cells were treated with beta-amyloid to the final concentrations of 0, 2.5, 7.5 and 25 microM for 24 hours in the absence (designated as Aβ25-35 alone group hereinafter) or presence with inventive starch isolated from Triticum aestivum L. (final concentration: 125 microgram/ml; designated as A25-35+SW group hereinafter) or soluble starch (final concentration: 125 microgram/ml; designated as A25-35+SS group hereinafter) which were made from 50 microgram/ml stock solutions in DMSO (See FIGS. 3a & 3b). After incubation, cells were treated with MTT solution (final concentration of 1 mg/ml) for 2 hours. The dark blue formazan in viable cells was dissolved in DMSO and absorbance at 540 nm was measured by a microplate reader (FLUOstar OPTIMA, BMG LABTECH, GERMANY).
Based on the above-mentioned result, to further examine the protective effects of the crude extract of Triticum aestivum L. or starches isolated from Gramnieae plants against the beta-amyloid-induced cytotoxicity, the concentration of beta-amyloid was fixed to 25 microM. The crude extract of Triticum aestivum L. (HY6228, shown as HY in FIG. 3c; 250 microgram/ml) and starches isolated from Gramnieae plants (SS, SC, SR and SW; 125 microgram/ml) were added thereto to incubation (See FIG. 3c). We also have examined the cell viability improving effect of total dietary fiber (TDF; 500, 1000 microgram/ml) in the presence of 10 microM of beta-amyloid (See FIG. 3d).
In addition, arabinoxylan (AX; 500 microgram/ml), arabinose (Ara; 250 microgram/ml), xylose (Xyl; 250 microgram/ml) and beta-glucan (b-glu; 20 microgram/ml) were added to the media in the presence of 15 microM beta-amyloid (See FIG. 3e).
On the technique in general: Formazan colour is commonly taken as a measure of viable cells.

For data set [1], the system named is myocardial infarction-induced rat model. The experiment in a line: Myocardial infarction-induced rat model (LAD ischemia-reperfusion), oral administration. In kind it is in vivo. Particulars: for size of infarcted area reduced by: 10 mg/kg/day oral, vs control 50.6%, p<0.05, FIG. 5c; for IA (% AAR): 10 mg/kg/day with food from three days before ischemia, control 50.6%, FIG. 5c. Here is the method:
The therapeutic efficacy of inventive starch and total dietary fiber on myocardial infarction was measured in myocardial infarction-induced rat model, using experiment rats prepared in Reference Example 1, in accordance with the procedure disclosed in the literature (Haisong J et al., Circulation, 97, pp 892-899, 1998), with minor modification.
SD rats prepared in Reference Example 1 were anesthetized with 10 mg/kg ketamine (Yuhan Corp., KOREA) and 5 mg/kg xylazine (Sigma, USA) and intubated endotracheally. The rats were connected to a respirator through a tracheotomy, and the heart was rapidly exteriorized through a left thoracotomy and pericardial incision. The upper region of left coronary artery (LAD) was ligated by passing a 5-0 prolene thread under LAD and tightening polyethylene tubing 50 (PE 50), resulting in ischemia. After 30 min of ischemia, 3 hours of reperfusion followed, after the tightened PE 50 was loosened. After the ischemia-reperfusion, the PE 50 was tightened again to induce ischemia, and then 2 ml of 1% Evans blue dye solution was infused intravenously to circulate whole body. Then the heart was isolated, cut into the width of 2-3 mm after the right atrium and right ventricle of the heart were removed. Then the stained (LV-AAR) and unstained area (AAR) of cross sectioned tissue was measured by using image analysis system (Quantity One 4.2, Bio-Rad, USA) to calculate the area at risk (AAR/LV, %). Then, the tissue was stained with 1% TTC (2,3,5-triphenyltetrazolium chloride, Sigma, USA) at 37° C. for 15 mins, fixed with 10% formalin solution. The infarcted area (IA/LV, %) was determined by measuring necrotic white area (IA) and total left ventricle area (LV). The ratio of IA to AAR of test samples and control group was compared to test efficacy.
The inventive starch, total dietary fiber, and representative components of the fiber mixed with food were administered orally, and the size of infarcted area was measured. To determine the proper dose with safety and maximum efficacy at the same time, the minimum dose calculated from the result obtained in Experimental Example 1 was set as a starting point, and the dose was increased according to two-fold increasing method, i.e., 100, 200 and 400 mg/kg.
Three days before the induction of ischemia, 400 mg/kg/day of HY6228 or inventive starch, or 10 mg/kg/day of inventive total dietary fiber, or 10 mg/kg/day of its components, such as arabinoxylan, beta-glucan, arabinose and xylose, was fed with 20 g of food with free access. After induction of myocardial infarction with 3 hours of reperfusion, the infarcted area was measured, the value of IA (% AAR) was calculated, and then efficacy of the inventive starch and total dietary fiber was compared with each other.

For data set [2], the system named is vascular dementia-induced rat model. Description: Vascular dementia-induced rat model (BCCAO), water-maze test. In kind it is in vivo. The following applies: 50 mg/kg fed for 1 week, FIG. 8b, 8c. The method, then: The therapeutic efficacy of inventive starch and total dietary fiber of the present invention on vascular dementia was measured in vascular dementia-induced rat model, using experiment rats prepared in Reference Example 1, in accordance with the procedure disclosed in the literature (Cho K O et al., J. Neurosci. Res., 83, pp 285-291, 2006), with minor modification.
The SD rats prepared in Reference Example 1 were anesthetized by inhalation using enflurane (Choongwae Pharm. Corp., KOREA). Two common carotid arteries were exposed by surgery and tied with thread using BCCAO (bilateral common carotid artery occlusion) method to reduce the blood flow rate into brain for 4 weeks. And then water-maze test disclosed in Experimental Example 6 was performed for 5 days.
7 days after the two common carotid arteries were tied, the rats were started to be fed with HY6228 (200 mg/kg), inventive starch (SW; 200 mg/kg), TDF (50 mg/kg) and arabinoxlyan (50 mg/kg) therewith for 1 week, for which the mean escape latency was measured.

For the compound `O=C[C@@H](O)[C@H](O)[C@H](O)CO` [arabinose], the viability at 250 µg/mL in the data set with SH-SY5Y cells amounted to 71.1%. In addition, in data set [1], the “size of infarcted area reduced by” value is 14.2% and the “IA (% AAR)” value was determined as 43.4%.

Consider `O=C[C@H](O)[C@@H](O)[C@H](O)CO` [xylose], for which, in the data set on SH-SY5Y cells, the viability at 250 µg/mL was 72.1%. In data set [1], the “size of infarcted area reduced by” value is 16.8% and the “IA (% AAR)” value worked out at 42.1%.

For the compound arabinoxylan, the cell viability in the data set with SH-SY5Y cells (500 microgram/ml) is 75.5%. In addition, in data set [1], the “size of infarcted area reduced by” value worked out at 16.4% and the “IA (% AAR)” value is 42.3%. In addition, the mean escape latency entry in data set [2] is “reduced the mean escape latency”.

In the case of beta-glucan, in the data set on SH-SY5Y cells (20 microgram/ml), the cell viability is reported as 70%. In addition, in data set [1], the “size of infarcted area reduced by” value amounted to 13.4% and the “IA (% AAR)” value came to 43.8%.

The term viability denotes the share of living cells, or the viability signal relative to a control. The cell viability is the share of living cells, or the viability signal relative to a control. Read a high cell viability as better survival.
